Measurements: patent publication US9045435B2, “Quinazoline compounds as sodium channel blockers” (Purdue Pharma, L.P., priority 2010, dated 2015)
Like-named read-outs stand apart in the source and are kept apart here.

Assays:
human Nav1.7 = human Nav1.7 (Homo sapiens, UniProt Q15858); test: FLIPR or FLIPR TETRA sodium dye assay with KCl and test article pre-incubation; assay type: cell-based
hNav1.7 = hNav1.7 (Homo sapiens, UniProt Q15858); test: Electrophysiology (EP) assay, whole-cell patch clamp; assay type: cell-based; conditions: for Kd: resting block dissociation constant, read-out: EP Nav1.7 Kr
Description: The hNav1.7 expressing HEK-293 cells were plated on 35 mm culture dishes pre-coated with poly-D-lysine in standard DMEM culture media (Mediatech, Inc., Herndon, Va.) and incubated in a 5% CO2 incubator at 37° C. Cultured cells were used approximately 12-48 hours after plating.
On the day of experimentation, the 35 mm dish was placed on the stage of an inverted microscope equipped with a perfusion system that continuously perfuses the culture dish with fresh recording media. A gravity driven superfusion system was used to apply test solutions directly to the cell under evaluation. This system consists of an array of glass pipette glass connected to a motorized horizontal translator. The outlet of the shooter was positioned approximately 100 μm from the cell of interest.
Whole cell currents were recorded using the whole-cell patch clamp configuration using an Axopatch 200B amplifier (Axon Instruments, Foster City Calif.), 1322A A/D converter (Axon Instruments) and pClamp software (v. 8; Axon Instruments) and stored on a personal computer. Gigaseals were formed and the whole-cell configuration was established in voltage clamp mode, and membrane currents generated by hNav1.7 were recorded in gap-free mode. Borosilicate glass pipettes have resistance values between 1.5 and 2.0 MΩ when filled with pipette solution and series resistance (<5 MΩ) was compensated 75-80%. Signals were sampled at 50 kHz and low pass filtered at 3 kHz.
After establishing the whole-cell configuration in voltage clamp mode, voltage protocols were run to establish the 1) test potential, 2) holding potential, and 3) the conditioning potential for each cell.
After establishing the whole-cell configuration in voltage clamp mode, a standard I-V protocol was run to determine the potential at which the maximal current (Imax) is elicited. This potential was the test potential (Vt). To determine a conditioning potential at which 100% of channels were in the inactivated state, a standard steady-state inactivation (SSIN) protocol was run using a series of fifteen 100 ms-long depolarizing prepulses, incrementing in 10 mV steps, immediately followed by a 5 ms testing pulse, Vt, to Vmax. This protocol also permitted determination of the holding potential at which all channels are in the resting state.
For compounds causing significant retardation of recovery from inactivation, an estimate of the affinity for the inactivated state of the channel (Ki) was generated using the following protocol. From the negative, no residual inactivation, holding potential, the cell was depolarized to the conditioning voltage for 2-5 seconds, returned to the negative holding potential for 10-20 ms to relieve fast inactivation and then depolarized to the test potential for ˜15 ms. This voltage protocol was repeated every 10-15 seconds, first to establish a baseline in the absence of the test compound, then in the presence of the test compound.
After a stable baseline was established, the test compound was applied and block of the current elicited by the test pulse assessed. In some cases, multiple cumulative concentrations were applied to identify a concentration that blocked between 40-60% of this current. Washout of the compound was attempted by superfusing with control solution once steady-state block was observed. An estimate of the Ki was calculated as follows: Ki=[drug]*{FR/(1−FR)}, Eq. 1 where [drug] is the concentration of a drug, and FR=I(after drug)/I(control), Eq. 2 where I is the peak current amplitude. If multiple concentrations were used, Ki was determined from the fit of a logistic equation to FRs plotted against corresponding drug concentrations.
In the alternative, the voltage clamp protocol to examine hNav1.7 currents was as follows. […]

[1] = sodium dye assay with KCl, recombinant Nav1.7/HEK293 cells, read-out: FLIPR Nav1.7 IC50 (μM) ± SEM
[2] = affinity for the inactivated state of the channel, HEK-293 cells, spread on the next grid line, read-out: EP Nav1.7 Kj
[3] = HEK-293 cells, spread on the next grid line

Sequence of hNav1.7 (Q15858 1-1977 isoform Q15858-3): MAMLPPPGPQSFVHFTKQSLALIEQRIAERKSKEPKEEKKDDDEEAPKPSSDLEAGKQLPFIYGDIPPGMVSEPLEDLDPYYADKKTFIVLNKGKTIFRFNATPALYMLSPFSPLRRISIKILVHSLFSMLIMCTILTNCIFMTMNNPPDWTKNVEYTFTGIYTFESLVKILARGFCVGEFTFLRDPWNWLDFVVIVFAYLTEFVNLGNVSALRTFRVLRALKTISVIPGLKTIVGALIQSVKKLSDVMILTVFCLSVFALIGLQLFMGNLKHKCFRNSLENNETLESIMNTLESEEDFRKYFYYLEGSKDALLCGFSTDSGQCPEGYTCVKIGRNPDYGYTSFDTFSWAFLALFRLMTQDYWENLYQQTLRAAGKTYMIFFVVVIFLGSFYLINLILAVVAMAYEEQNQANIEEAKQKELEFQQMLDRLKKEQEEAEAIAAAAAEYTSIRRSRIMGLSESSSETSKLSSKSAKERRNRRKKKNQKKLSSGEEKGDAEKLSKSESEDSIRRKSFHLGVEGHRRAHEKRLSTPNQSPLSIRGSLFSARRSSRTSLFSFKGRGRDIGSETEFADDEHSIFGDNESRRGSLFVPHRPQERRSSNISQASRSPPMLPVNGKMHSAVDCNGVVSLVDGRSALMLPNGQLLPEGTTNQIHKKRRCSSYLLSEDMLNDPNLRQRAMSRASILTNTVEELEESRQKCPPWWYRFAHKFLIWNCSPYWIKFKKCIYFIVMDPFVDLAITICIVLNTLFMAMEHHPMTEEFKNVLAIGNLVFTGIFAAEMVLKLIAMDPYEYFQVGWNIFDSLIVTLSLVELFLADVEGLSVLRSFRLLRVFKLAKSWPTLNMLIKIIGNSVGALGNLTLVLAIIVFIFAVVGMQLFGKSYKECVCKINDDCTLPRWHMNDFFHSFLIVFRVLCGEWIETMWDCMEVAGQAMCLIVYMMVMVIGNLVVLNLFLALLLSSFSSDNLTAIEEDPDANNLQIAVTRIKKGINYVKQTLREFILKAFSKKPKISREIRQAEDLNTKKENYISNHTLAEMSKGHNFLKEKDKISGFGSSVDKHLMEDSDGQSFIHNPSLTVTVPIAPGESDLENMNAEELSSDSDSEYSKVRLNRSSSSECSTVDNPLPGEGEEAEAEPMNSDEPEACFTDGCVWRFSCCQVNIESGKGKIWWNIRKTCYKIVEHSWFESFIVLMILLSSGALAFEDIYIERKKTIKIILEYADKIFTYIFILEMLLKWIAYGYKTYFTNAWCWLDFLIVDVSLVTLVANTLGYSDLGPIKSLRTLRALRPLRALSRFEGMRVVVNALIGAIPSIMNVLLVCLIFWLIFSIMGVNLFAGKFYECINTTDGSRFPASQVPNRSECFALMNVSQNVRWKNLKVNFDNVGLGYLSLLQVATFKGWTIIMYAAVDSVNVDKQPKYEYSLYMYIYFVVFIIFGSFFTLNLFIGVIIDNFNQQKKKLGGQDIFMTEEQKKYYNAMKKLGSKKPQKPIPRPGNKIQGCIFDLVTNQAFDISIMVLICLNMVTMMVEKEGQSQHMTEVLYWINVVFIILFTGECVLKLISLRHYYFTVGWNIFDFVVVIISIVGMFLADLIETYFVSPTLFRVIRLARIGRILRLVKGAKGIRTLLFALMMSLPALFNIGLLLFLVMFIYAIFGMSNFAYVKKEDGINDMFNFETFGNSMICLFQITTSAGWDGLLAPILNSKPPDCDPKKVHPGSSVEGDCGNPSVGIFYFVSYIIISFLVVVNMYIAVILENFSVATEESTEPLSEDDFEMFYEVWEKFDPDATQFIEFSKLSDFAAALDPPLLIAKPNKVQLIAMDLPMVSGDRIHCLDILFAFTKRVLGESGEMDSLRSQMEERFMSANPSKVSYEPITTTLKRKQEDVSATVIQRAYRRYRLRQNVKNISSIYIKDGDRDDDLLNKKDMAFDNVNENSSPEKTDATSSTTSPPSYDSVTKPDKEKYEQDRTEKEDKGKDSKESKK
Sequence of human Nav1.7 (Q15858 1-1977 isoform Q15858-3): as above

SMILES | IC50 (human Nav1.7; [1]) [µM] | also measured
CN(C)CCNc1nc(-c2ccc(Oc3ccc(F)cc3)cc2)c2ccccc2n1 [Compound 13d, N^1-(4-(4-(4-fluorophenoxy)phenyl)quinazolin-2-yl)-N^2,N^2-dimethylethane-1,2-diamine] | 0.317 | 
O=C1CN(c2nc(-c3ccc(Oc4ccc(F)cc4)cc3)c3ccccc3n2)CCN1 [Compound 13b, 4-(4-(4-(4-fluorophenoxy)phenyl)quinazolin-2-yl)piperazin-2-one] | 0.839 | 
CNc1nc(-c2ccc(Oc3ccc(F)cc3)cc2)c2ccccc2n1 [Compound 13n, 4-(4-(4-fluorophenoxy)phenyl)-N-methylquinazolin-2-amine] | 0.294 | 
NC(=O)[C@@H]1CCCN1c1nc(-c2ccc(Oc3ccc(F)cc3)cc2)c2ccccc2n1 [Compound 13l, (S)-1-(4-(4-(4-fluorophenoxy)phenyl)quinazolin-2-yl)pyrrolidine-2-carboxamide] | 0.105 | Ki (hNav1.7; [2]): 190 nM
NC(=O)C[C@H](Nc1nc(-c2ccc(Oc3ccc(F)cc3)cc2)c2ccccc2n1)C(N)=O [Compound 13s, (S)-2-((4-(4-(4-fluorophenoxy)phenyl)quinazolin-2-yl)amino)succinamide] | 0.313 | 
O=C(O)c1nc(-c2ccc(Oc3ccccc3)cc2)c2ccccc2n1 [Compound 4, 4-(4-phenoxyphenyl)quinazoline-2-carboxylic acid] | > 20 | 
OC[C@@H](O)c1nc(-c2ccc(Oc3ccc(F)cc3)cc2)c2ccccc2n1 [Compound 10, (S)-1-(4-(4-(4-fluorophenoxy)phenyl)quinazolin-2-yl)ethane-1,2-diol] | 0.849 | 
OCC(CO)Nc1nc(-c2ccc(Oc3ccc(F)cc3)cc2)c2ccccc2n1 [Compound 13u, 2-((4-(4-(4-fluorophenoxy)phenyl)quinazolin-2-yl)amino)propane-1,3-diol] | 0.208 | Ki (hNav1.7; [2]): 640 nM; Kd (hNav1.7; [3]): 55300 nM
CN(C)CCCNc1nc(-c2ccc(Oc3ccc(F)cc3)cc2)c2ccccc2n1 [Compound 13p, N^1-(4-(4-(4-fluorophenoxy)phenyl)quinazolin-2-yl)-N^3,N^3-dimethylpropane-1,3-diamine] | 0.205 | 
O=C1NCCN1CCNc1nc(-c2ccc(Oc3ccc(F)cc3)cc2)c2ccccc2n1 [Compound 13v, 1-(2-((4-(4-(4-fluorophenoxy)phenyl)quinazolin-2-yl)amino)ethyl)imidazolidin-2-one] | 0.204 | Ki (hNav1.7; [2]): 460 nM; Kd (hNav1.7; [3]): 23700 nM
NC(=O)c1nc(-c2ccc(Oc3ccccc3)cc2)c2ccccc2n1 [Compound 5, 4-(4-phenoxyphenyl)quinazoline-2-carboxamide] | 0.097 | Ki (hNav1.7; [2]): 120 nM
COC(=O)[C@@H]1CCCN1c1nc(-c2ccc(Oc3ccc(F)cc3)cc2)c2ccccc2n1 [Compound 13f, (S)-methyl 1-(4-(4-(4-fluorophenoxy)phenyl)-quinazolin-2-yl)pyrrolidine-2-carboxylate] | 0.642 | Ki (hNav1.7; [2]): 620 nM; Kd (hNav1.7; [3]): 23900 nM
NC(=O)[C@H](CO)Nc1nc(-c2ccc(Oc3ccc(F)cc3)cc2)c2ccccc2n1 [Compound 13a, (S)-2-{4-[4-(4-fluorophenoxy)phenyl]quinazolin-2-ylamino}-3-hydroxy-propionamide] | 0.836 | Ki (hNav1.7; [2]): 740 nM
OC1CCN(c2nc(-c3ccc(Oc4ccc(F)cc4)cc3)c3ccccc3n2)CC1 [Compound 13i, 1-(4-(4-(4-fluorophenoxy)phenyl)quinazolin-2-yl)piperidin-4-ol] | 0.428 | 
OCCNc1nc(-c2ccc(Oc3ccc(F)cc3)cc2)c2ccccc2n1 [Compound 13c, 2-((4-(4-(4-fluorophenoxy)phenyl)quinazolin-2-yl)amino)ethanol] | 0.369 | 
OCCN1CCN(c2nc(-c3ccc(Oc4ccc(F)cc4)cc3)c3ccccc3n2)CC1 [Compound 13j, 2-(4-(4-(4-(4-fluorophenoxy)phenyl)quinazolin-2-yl)piperazin-1-yl)ethanol] | 0.104 | 
CN(N)c1nc(-c2ccc(Oc3ccc(F)cc3)cc2)c2ccccc2n1 [Compound 13g, 4-(4-(4-fluorophenoxy)phenyl)-2-(1-methylhydrazinyl)quinazoline] | 0.309 | 
OC[C@H](O)CNc1nc(-c2ccc(Oc3ccc(F)cc3)cc2)c2ccccc2n1 [Compound 13q, (R)-3-((4-(4-(4-fluorophenoxy)phenyl)quinazolin-2-yl)amino)propane-1,2-diol] | 0.071 | Ki (hNav1.7; [2]): 220 nM
CCN1CCN(c2nc(-c3ccc(Oc4ccc(F)cc4)cc3)c3ccccc3n2)CC1 [Compound 13h, 2-(4-ethylpiperazin-1-yl)-4-(4-(4-fluorophenoxy)phenyl)quinazoline] | 0.236 | 
NC(=O)CNc1nc(-c2ccc(Oc3ccc(F)cc3)cc2)c2ccccc2n1 [Compound 13x, 2-((4-(4-(4-fluorophenoxy)phenyl)quinazolin-2-yl)amino)acetamide] | > 20 | 
Nc1nc(-c2ccc(Oc3ccc(F)cc3)cc2)c2ccccc2n1 [Compound 13e, 4-(4-(4-fluorophenoxy)phenyl)quinazolin-2-amine] | 0.426 | 
CN1CCN(c2nc(-c3ccc(Oc4ccc(F)cc4)cc3)c3ccccc3n2)CC1 [Compound 13k, 4-(4-(4-fluorophenoxy)phenyl)-2-(4-methylpiperazin-1-yl)quinazoline] | 0.418 | Ki (hNav1.7; [2]): 70 nM; Kd (hNav1.7; [3]): 2090 nM
CCOc1nc(-c2ccc(Oc3ccc(F)cc3)cc2)c2ccccc2n1 [Compound 13y, 2-ethoxy-4-(4-(4-fluorophenoxy)phenyl)-quinazoline] | 0.995 | 
COC(=O)[C@@H]1C[C@@H](O)CN1c1nc(-c2ccc(Oc3ccc(F)cc3)cc2)c2ccccc2n1 [Compound 13m, (2S,4R)-methyl 1-(4-(4-(4-fluorophenoxy)phenyl)quinazolin-2-yl)-4-hydroxypyrrolidine-2-carboxylate] | 0.833 | 
OC[C@@H](O)CNc1nc(-c2ccc(Oc3ccc(F)cc3)cc2)c2ccccc2n1 [Compound 13r, (S)-3-((4-(4-(4-fluorophenoxy)phenyl)quinazolin-2-yl)amino)propane-1,2-diol] | 0.32 | 
Fc1ccc(Oc2ccc(-c3nc(Oc4ccccn4)nc4ccccc34)cc2)cc1 [Compound 13z, 4-(4-(4-fluorophenoxy)phenyl)-2-(pyridin-2-yloxy)quinazoline] | 1.91 | 
CN1[C@@H]2CCC[C@H]1C[C@@H](Nc1nc(-c3ccc(Oc4ccc(F)cc4)cc3)c3ccccc3n1)C2 [Compound 13t, 4-(4-(4-fluorophenoxy)phenyl)-N-((1R,3S,5S)-9-methyl-9-azabicyclo[3.3.1]nonan-3-yl)quinazolin-2-amine] |  | Ki (hNav1.7): 20 nM; IC50 (human Nav1.7): 0.228 µM
NN(CCO)c1nc(-c2ccc(Oc3ccc(F)cc3)cc2)c2ccccc2n1 [Compound 13w, 2-(1-(4-(4-(4-fluorophenoxy)phenyl)quinazolin-2-yl)hydrazinyl)ethanol] | 0.07 | 
Fc1ccc(Oc2ccc(-c3nc(NCCCn4ccnc4)nc4ccccc34)cc2)cc1 [Compound 13o, N-(3-(1H-imidazol-1-yl)propyl)-4-(4-(4-fluorophenoxy)phenyl)quinazolin-2-amine] | 0.325 | 
CCOC(=O)c1nc(-c2ccc(Oc3ccccc3)cc2)c2ccccc2n1 [Compound 3, ethyl 4-(4-phenoxyphenyl)quinazoline-2-carboxylate] | 1.57 | 
